The results in this text go back to patent US20130219529A1, “PROBE FOR A HAIR CELL, AND LABELLING METHOD FOR A HAIR CELL USING THE PROBE FOR A HAIR CELL” (CANON KABUSHIKI KAISHA, priority 2008, published 2013).

The subject of data set [1] is hair cell (neuromast) of Zebrafish. Nature of the data set: Staining of hair cell (neuromast) of Zebrafish juveniles with probe, fluorescence stereomicroscope image visually evaluated. The arrangement: Fluorescence intensity: key to the marks not given beside the values. It is filed as in vivo. As to conditions: dye concentration 1 μg/mL; for Pattern of the neuromast stained (FIGS. 1 to 3): Zebrafish juveniles, in words; for Fluorescence intensity / Staining pattern: 1 hour, Zebrafish juveniles Day 7 after fertilization. Here is the method:
A staining compound (1) was dissolved in DMSO to prepare a stock solution at a concentration of 1 mg/mL. The stock solution was diluted with distilled water to prepare a hair cell staining solution 1 having a dye concentration of 1 μg/mL. Further, Egg Water was prepared by dissolving artificial seawater SEALIFE (manufactured by Marinetech Co., Ltd.) in distilled water at a concentration of 60 mg/L. Five juveniles (embryos on Day 7 after fertilization) of Zebrafish were placed into any one of wells of a 24-well multiwell plate together with feeding water. The feeding water was discharged and 1 mL of the hair cell staining solution 1 was added. After the whole had been left to stand for 1 hour, the hair cell staining solution 1 in the well was discharged and replaced by 1 mL of fresh Egg Water. In addition, such an operation that Egg Water was discharged and replaced by 1 mL of fresh Egg Water was repeated twice. One of the juveniles was taken out from the well onto a dish, the motion of the juvenile was restricted by addition of methylcellulose, and a fluorescence image was captured with a fluorescence stereomicroscope. MZ16FA manufactured by Leica Microsystems K.K. was used as a stereoscopic microscope.
An image pickup unit (a digital camera DP72 for a microscope manufactured by Olympus Corporation) of a fluorescence stereomicroscope was remodeled by removing an IR cut filter so as to capture a fluorescence image in a near-infrared wavelength region.

A short description of data set [2]: Excitation and fluorescence emission wavelength measured with fluorescence spectrophotometer. Conditions: aqueous solution, 10 mg/mL DMSO solution diluted 500-fold with purified water. The format is physicochemical.

In the case of `O=S(=O)(O)CCN1/C(=C\C=C\c2oc3ccc(-c4ccccc4)cc3[n+]2CCS(=O)(=O)O)Oc2ccc(-c3ccccc3)cc21` [Staining compound 25], the “Pattern of the neuromast stained (FIGS. 1 to 3)” value in data set [1] is “a portion with a smaller neuromast is selectively stained”.
The same measure, in the same setting: the value for `CCN1C=C/C(=C/C=C/c2oc3ccccc3[n+]2CC)c2ccccc21` [Staining compound 50] was “a portion with a bigger neuromast is selectively stained”.
Same read-out and setting: the entry for `COc1ccc(N2c3ccc(/C=C/C4=[N+](C)c5ccccc5C4(C)C)cc3C3CCCC32)cc1` (stereo not drawn) [Staining compound 53] is “both a portion with a bigger neuromast and a portion with a smaller neuromast are simultaneously stained”.
In the case of `O=C(O)C[n+]1c(/C=C/c2ccc3c(c2)C2CCCC2N3c2ccc(C=C(c3ccccc3)c3ccccc3)cc2)oc2ccccc21` (stereo not drawn) [compound 1], in data set [2], the Excitation wavelength λex is 570 nm and the Fluorescence emission wavelength λem was determined as 657 nm. For the same molecule, the Fluorescence intensity entry in data set [1] is given as “+++”.
In data set [2], `COc1ccc2cc(N3c4ccc(/C=C/c5sc6ccccc6[n+]5CC(=O)O)cc4C4CCCC43)ccc2c1` (stereo not drawn) [compound 4] had an Excitation wavelength λex of 401 nm and a Fluorescence emission wavelength λem of 516 nm. In addition, in data set [1], the Fluorescence intensity result is “+++”.
On to `O=C(O)C[n+]1c(/C=C/c2ccc3c(c2)C2CCCC2N3c2ccccc2)sc2ccccc21` (stereo not drawn) [compound 6], for which, in data set [2], the Excitation wavelength λex was determined as 545 nm and the Fluorescence emission wavelength λem amounted to 636 nm. Also, the Fluorescence intensity entry in data set [1] was “+++”.
In data set [2], `COc1ccc(N2c3ccc(/C=C/c4sc5ccccc5[n+]4CC(=O)O)cc3C3CCCC32)cc1` (stereo not drawn) [compound 8] registered an Excitation wavelength λex of 560 nm and a Fluorescence emission wavelength λem of 677 nm. Further, the Fluorescence intensity entry in data set [1] was “+++”.
In data set [2], `O=C(O)C[n+]1c(/C=C/c2ccc3c(c2)C2CCCC2N3Cc2ccccc2)sc2ccccc21` (stereo not drawn) [compound 15] returned an Excitation wavelength λex of 566 nm and a Fluorescence emission wavelength λem of 611 nm. The Fluorescence intensity entry in data set [1] was “+++”.
With `CCC(=C\c1oc2ccc(-c3ccccc3)cc2[n+]1CC)/C=C1/Oc2ccc(-c3ccccc3)cc2N1CC` [compound 16], in data set [2], the Excitation wavelength λex was determined as 459 nm and the Fluorescence emission wavelength λem stood at 564 nm. In data set [1], the Fluorescence intensity entry is reported as “+++” and the Staining pattern result is recorded as “S”.
For `O=S(=O)(O)CCN1/C(=C\C=C\c2oc3ccc(-c4ccccc4)cc3[n+]2CCS(=O)(=O)O)Oc2ccc(-c3ccccc3)cc21` [compound 25], in that order: 470 nm, 558 nm, “+++” and “S”.
For `CC(=C\c1oc2ccccc2[n+]1CCC(=O)O)/C=C1/Oc2ccccc2N1CCC(=O)O` [compound 28], in data set [2], the Excitation wavelength λex was 429 nm and the Fluorescence emission wavelength λem is 503 nm. The Fluorescence intensity entry in data set [1] is reported as “+++”.
In the case of `CCC(=C\c1sc2ccccc2[n+]1CC)/C=C1/Sc2ccccc2N1CC` [compound 39], in data set [2], the Excitation wavelength λex came out at 563 nm and the Fluorescence emission wavelength λem worked out at 569 nm. In addition, in data set [1], the Fluorescence intensity result was “+++”.
In the same order, the values of `CCC(=C\c1sc2c3ccccc3ccc2[n+]1CC)/C=C1/Sc2c(ccc3ccccc23)N1CC` [compound 40] are 344 nm, 381 nm and “+++”.
With `CN1/C(=C\C=C\C2=[N+](C)c3ccccc3C2(C)C)C(C)(C)c2ccccc21` [compound 43], in data set [2], the Excitation wavelength λex was found to be 473 nm and the Fluorescence emission wavelength λem came to 564 nm. Moreover, the Fluorescence intensity entry in data set [1] is on record as “+++”.
For `CCN1/C(=C\C(C)=C\c2sc3ccccc3[n+]2CC)Sc2ccccc21` [compound 45], in that order: 560 nm, 628 nm and “+++”.
In data set [2], `CCN1/C(=C\C(C)=C\c2sc3c4ccccc4ccc3[n+]2CC)Sc2c1ccc1ccccc21` [compound 47] displayed an Excitation wavelength λex of 354 nm and a Fluorescence emission wavelength λem of 469 nm. Further, the Fluorescence intensity result in data set [1] is given as “+++”.
Turning to `CCN1C=C/C(=C/C=C/c2oc3ccccc3[n+]2CC)c2ccccc21` [compound 50], in data set [2], the Excitation wavelength λex worked out at 571 nm and the Fluorescence emission wavelength λem came out at 620 nm. Also, the Fluorescence intensity result in data set [1] is “+++”.
In data set [2], `CC1(C)C(/C=C/c2ccc3c(c2)C2CCCC2N3c2ccc(C=C(c3ccccc3)c3ccccc3)cc2)=[N+](CCC(=O)O)c2ccccc21` (stereo not drawn) [compound 51] registered an Excitation wavelength λex of 611 nm and a Fluorescence emission wavelength λem of 720 nm. Moreover, in data set [1], the Fluorescence intensity result was “+++” and the Staining pattern entry was “S”.
In data set [2], `COc1ccc(N2c3ccc(/C=C/C4=[N+](C)c5ccccc5C4(C)C)cc3C3CCCC32)cc1` (stereo not drawn) [compound 53] came in with an Excitation wavelength λex of 614 nm and a Fluorescence emission wavelength λem of 669 nm. Moreover, the Fluorescence intensity entry in data set [1] was “+++”.
On to `CC/N=c1\cc2oc3cc(NCC)c(C)cc3c(-c3ccccc3C(=O)OCC)c-2cc1C` [compound 54], for which, in data set [2], the Excitation wavelength λex stood at 528 nm and the Fluorescence emission wavelength λem was 550 nm. In addition, the Fluorescence intensity entry in data set [1] is reported as “+++”.
In the same order, the values of `CCCCNS(=O)(=O)c1ccc(-c2c3ccc(=[N+](CC)CC)cc-3oc3cc(N(CC)CC)ccc23)c(S(=O)(=O)O)c1.[Na+]` [compound 57] are 570 nm, 589 nm and “+++”.
For `O=S(=O)(O)c1ccccc1-c1c2cc/c(=N/CCO)cc-2oc2cc(NCCO)ccc12` [compound 58], in that order: 480 nm, 509 nm and “+++”.
For `CCC[N+](CCC)=c1ccc2c(-c3ccccc3S(=O)(=O)O)c3ccc(Nc4c(C)cccc4C)cc3oc-2c1.[Na+]` [compound 60], in that order: 509 nm, 578 nm and “+++”.
Turning to `CCCC/N=c1/ccc2c(-c3ccccc3S(=O)(=O)O)c3ccc(NCCCC)cc3oc-2c1` [compound 63], in data set [2], the Excitation wavelength λex is 490 nm and the Fluorescence emission wavelength λem was 560 nm. For the same molecule, the Fluorescence intensity entry in data set [1] is listed as “+++”.
On to `CCN1/C(=C/C=C/C=C/C=C/C2=[N+](CC)c3ccccc3C23CCCCC3)C2(CCCCC2)c2ccccc21` [compound 67], for which, in data set [2], the Excitation wavelength λex stood at 750 nm and the Fluorescence emission wavelength λem was determined as 780 nm. Also, the Fluorescence intensity entry in data set [1] was “+++”.
In the same order, the values of `CN1/C(=C/C=C/C=C/C=C/C2=[N+](C)c3ccccc3C2(C)C)C(C)(C)c2ccccc21` [compound 68] are 730 nm, 760 nm and “+++”.
In the case of `CN1\C(=C/C=C/C=C/C2=[N+](C)c3ccc4ccccc4c3C2(C)C)C(C)(C)c2c1ccc1ccccc21` [compound 69], in data set [2], the Excitation wavelength λex was determined as 670 nm and the Fluorescence emission wavelength λem amounted to 700 nm. The Fluorescence intensity entry in data set [1] is given as “+++”.
With `CCN1C=C/C(=C\C=c2\s/c(=C/c3sc4ccccc4[n+]3CC)n(CC)c2=O)c2ccccc21` [compound 70], in data set [2], the Excitation wavelength λex was determined as 660 nm and the Fluorescence emission wavelength λem stood at 690 nm. Further, the Fluorescence intensity result in data set [1] is recorded as “+++”.
